Data taken from patent US20260306502A1, “MITOCHONDRIAL UNCOUPLERS FOR TREATMENT OF METABOLIC DISEASES AND CANCER” (Mito Biopharma, LLC, priority 2022, published 2026).
Entries after “also recorded” stand apart in the source; their conditions may differ.

Columns and labels:
[1] = PO pharmacokinetic study, oral exposure (Example B3); assay type: in vivo; details: for AUC at 24 h: blood, po, 10 mg/kg gavage; for oral absorption, systemic exposure: in words
Experimental: The blood concentration of the compound was then determined at 0 (pre-dosing), 5 min, 15 min, 30 min, 1 hr, 2 hr, 4 hr, 8 hr, 24 hr time points by LC-MS/MS analysis (See Tables 1 and 2, vide supra).

[2] = test system: HFD-induced diabetic mouse model and db/db mouse model; test: Efficacy in HFD-induced diabetic and db/db mouse models; assay type: in vivo; details: for reducing blood glucose, blood insulin, and glycated HbA1c: 5 mg/kg once daily PO, db/db and HFD mice; for minimal effective dose: Mus musculus, both HFD and db/db models, oral daily gavage, read-out: Efficacious dosage to reduce blood glucose in mouse models, oral daily gavage
Experimental: (§1) For HFD induced diabetic mouse model, C57Bl6 mice (male, n=6) were induced to obese and diabetic conditions by feeding high-fat diet (HFD, 60% fat calories, Research Diet, Inc. New Brunswick, NJ) for 3-4 months. […] During the 3-week period, the mice continued feeding HFD. […] The blood glucose levels were measured after an overnight fast, plasma insulin levels were tested after 5-6 hours fast, and the glycated HbA1c levels were determined in whole blood samples.
(§2) Experiments were similarly performed with other compounds, in either high-fat diet induced diabetes and fatty liver models, or in db/db mouse model, or in both, by daily oral gavage administration with low dosages.

[3] = test system: high-fat diet (HFD)-induced diabetic mouse model; test: Efficacy in high-fat diet (HFD)-induced diabetic/fatty liver mouse model; assay type: in vivo; details: HFD mice, 3 weeks; for reversing fatty liver (liver steatosis, H&E histology): 5 mg/kg PO daily
Experimental: as §1
FIG. 15C and FIG. 15D show liver sections from mice fed HFD following 3 weeks of treatment with Compounds 25 and 64, respectively (P.O. dosing of 5 mg/kg, by daily gavage).
as §2

CD-1 mice = test: Short-term (10-day) escalating toxicology study in CD-1 mice; assay type: in vivo, mouse; details: in words
Experimental: (§3) Clinical signs, body weights, food consumptions, rectal temperature, hematology, serum chemistry, plasma exposure, necropsies, tissue histopathology, were examined.
(§4) The compound was administered as a homogeneous suspension in 0.5% CMC+1% Tween80 in water in a volume of 10 mL/kg for oral administration. There were two arms in the study: 5 mice in the toxicology group and 5 mice in the toxicokinetic (TK) satellite group. Clinical signs were recorded twice daily. Body weight and food consumption were recorded once daily. Rectal temperature was recorded once every two days for a total of 5 times throughout the study. Necropsies were conducted at the termination of the study. Hematology, serum chemistry, plasma exposure, and tissue distribution were evaluated post 10th dosing in the TK satellite animals. Histopathology was examined in selected organs/tissues. Based on the outcomes of the toxicology parameters, NOAEL (no-observable-adverse-effect-level) and MTD (maximal tolerable dose) were determined.

[4] = as above; assay type: in vivo, mouse; details: mouse, in vivo; oral gavage once daily, 10 days, male CD-1 mice; read-out: NOAEL (no-observable-adverse-effect-level)
Experimental: as §3, §4

[5] = test system: LX-2 cells (human hepatic stellate cells); test: Inhibition of TGFβ-induced hepatic stellate cell differentiation into myofibroblast-like cells; assay type: cell-based; details: TGFβ 10 ng/ml; for minimal effective concentration: Homo sapiens, LX-2, hepatic stellate cell differentiation to myofibroblast-like cells, 24 hours, read-out: Minimal inhibitory concentration; for inhibition of TGFβ-induced hepatic stellate cell differentiation: in words
Experimental: Liver fibrosis is one hallmark of NASH. […] This process could be modeled in vitro using the hepatic stellate differentiation experiment. The human hepatic stellate LX-2 cells were cultured within DMEM (Dulbecco's Modified Eagle Media, pH 7.4) supplied with 2% fetal bovine serum, 4.5 g/l glucose and 2 mM glutamine to 100 percent confluence. […] Cellular morphology was then examined under a microscope. As shown in FIG. 16 to FIG. 17, hepatic stellate cells could be induced by TGF-beta to differentiate into myofibroblast-like cells.

C2C12 cells = test: Mitochondrial uncoupling activity by oxygen consumption rate (OCR) assay, Seahorse, in presence of oligomycin; assay type: cell-based, mouse; details: for minimal effective concentration: Mus musculus, C2C12, in the presence of oligomycin 2.5 μM, read-out: COCR-min: minimal concentration increasing OCR in the presence of oligomycin; for effect on oxygen consumption rate (OCR): in words
Method in brief: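 Mouse C2C12 myoblasts grown in 10% FBS medium had OCR measured on Seahorse XF96/XF24 sequentially: basal, after 2.5 μM oligomycin (final), then after compound at varying concentrations. Rotenone/antimycin A confirmed mitochondrial origin. COCR-min is the minimal compound concentration inducing OCR in the presence of oligomycin.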

[6] = test system: cultured mammalian cells, the NIH-3T3 cells, C2C12 cells, and other mammalian cell lines; test: Mitochondrial membrane potential (MMP) assay, TMRE (or DilC1(5)) staining, related to OCR induction; assay type: cell-based; details: in words; TMRE and DilC1(5) staining
Method in brief: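 NIH-3T3, C2C12 and other mammalian cells in log phase treated with compound at various concentrations for 2 h, stained with 100 nM TMRE for 15 min, imaged by fluorescence microscopy; alternatively 50 nM DilC1(5), 15–30 min at 37 °C, far-red read. C10% TMRE = concentration leaving 10% MMP.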

SMILES	AUC at 24 h [1] [ng·h/mL]	oral absorption, systemic exposure [1]	reducing blood glucose, blood insulin, and glycated HbA1c [2]	minimal effective dose [2] [mg/kg]	reversing fatty liver (liver steatosis, H&E histology) [3]	reducing blood triglyceride levels and non-HDL cholesterol levels ([3]; 5 mg/kg/day gavage)	short-term safety profile over DNP (CD-1 mice)	NOAEL at 240 h [4] [mg/kg/day]	minimal effective concentration [5] [µM]	inhibition of TGFβ-induced hepatic stellate cell differentiation [5]	inhibition of TGFβ-induced hepatic stellate cell differentiation ([5]; listed as Compounds 25)	minimal effective concentration (C2C12 cells) [µM]	effect on oxygen consumption rate (OCR) (C2C12 cells)	effect on mitochondrial membrane potential (MMP) [6]	inhibition of TGFβ-induced hepatic stellate cell differentiation ([5]; listed as Compound64)
COCCN(CCOC)Cc1cc(Cl)cc(C(=O)Nc2nc3ccc(C(F)(F)F)cc3s2)c1O [Compound 25, 3-((bis(2-methoxyethyl)amino)methyl)-5-chloro-2-hydroxy-N-(6-(trifluoromethyl)benzo[d]thiazol-2-yl)benzamide]	10000 to 30000	excellent	highly efficacious	2.5	highly efficacious in reversing fatty liver	efficacious	drastically improved short-term safety profiles	50	7.5	effectively inhibit the differentiation process; also recorded: prevents TGFβ-induced differentiation of LX-2 cells	able to directly inhibit hepatic stellate cell (HSC) activation in vitro	< 5	very robust OCR induction at 3.0, 6.0, and 9.0 μM; also recorded: effectively uncouples mitochondria (induces OCR	does not cause observable MMP reduction; also recorded: does not appear to reduce MMP over a wide concentration range; also recorded: without reducing MMP	–
COCCOCc1cc(C(F)(F)F)cc2sc(NC(=O)c3cc(Cl)cc(CN4C[C@@H](C)O[C@@H](C)C4)c3O)nc12 [Compound 64, 5-chloro-3-((cis-2,6-dimethylmorpholino)methyl)-2-hydroxy-N-(4-((2-methoxyethoxy)methyl)-6-(trifluoromethyl)benzo[d]thiazol-2-yl)benzamide]	10000 to 30000	excellent	highly efficacious	1 to 2.5	highly efficacious in reversing fatty liver	–	drastically improved short-term safety profiles	40	1	effectively inhibit the differentiation process; also recorded: able to directly inhibit hepatic stellate cell (HSC) activation in vitro	–	< 5	increases OCR	minor loss of MMP; also recorded: without significantly decreasing MMP over a wide concentration range; also recorded: without drastically dissipating mitochondrial membrane potential	prevents TGFβ-induced differentiation of LX-2 cells
